Publication PMC2232895 (The Journal of General Physiology, 2000)

Target: T1, bovine rod cGMP-gated channel alpha subunit (retinal CNG channel) (Bos taurus, UniProt Q00194)
T1 sequence (Q00194 1-690): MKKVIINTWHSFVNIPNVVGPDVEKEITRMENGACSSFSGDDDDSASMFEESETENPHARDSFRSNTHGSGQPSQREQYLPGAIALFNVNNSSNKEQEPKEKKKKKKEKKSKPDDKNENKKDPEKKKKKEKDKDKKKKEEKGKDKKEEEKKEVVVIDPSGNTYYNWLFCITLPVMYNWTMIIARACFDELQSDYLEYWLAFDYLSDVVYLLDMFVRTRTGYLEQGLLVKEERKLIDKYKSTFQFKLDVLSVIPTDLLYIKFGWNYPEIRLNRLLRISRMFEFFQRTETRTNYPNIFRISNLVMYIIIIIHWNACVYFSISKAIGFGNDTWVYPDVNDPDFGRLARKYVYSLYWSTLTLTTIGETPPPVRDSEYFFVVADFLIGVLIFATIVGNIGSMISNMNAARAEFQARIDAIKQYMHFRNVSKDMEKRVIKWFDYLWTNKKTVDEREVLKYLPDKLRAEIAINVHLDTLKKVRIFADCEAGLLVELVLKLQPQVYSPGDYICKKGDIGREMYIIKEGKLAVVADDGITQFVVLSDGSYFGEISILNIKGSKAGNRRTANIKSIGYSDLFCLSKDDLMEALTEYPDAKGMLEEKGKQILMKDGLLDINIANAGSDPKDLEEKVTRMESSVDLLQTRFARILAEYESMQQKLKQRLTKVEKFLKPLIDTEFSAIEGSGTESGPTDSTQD
Assay type: cell-based

`NCCCNCCCCNCCCN` [spermine] showed a Kd of 510 ± 40 nM.
